Source: PMC3260207, “Site-Directed Mutations and the Polymorphic Variant Ala160Thr in the Human Thromboxane Receptor Uncover a Structural Role for Transmembrane Helix 4” (PLoS ONE, 2012)
Changes are numbered by the printed parent chain.

Experiments:
Experiment in all cases: Intracellular calcium mobilization (Fluo-4NW) in transfected HEK293T cells
Format in all cases: cell-based
TP F115A mutant = molecular target: T1, TP F115A mutant (Homo sapiens, UniProt P21731, F115A); design: expressed in transfected cells; transient, pMT4; settings: read-out: EC50 of agonist U46619 (calcium mobilized), transiently transfected HEK293T cells, mean ± S.E
T1 sequence (P21731 1-343 F115A): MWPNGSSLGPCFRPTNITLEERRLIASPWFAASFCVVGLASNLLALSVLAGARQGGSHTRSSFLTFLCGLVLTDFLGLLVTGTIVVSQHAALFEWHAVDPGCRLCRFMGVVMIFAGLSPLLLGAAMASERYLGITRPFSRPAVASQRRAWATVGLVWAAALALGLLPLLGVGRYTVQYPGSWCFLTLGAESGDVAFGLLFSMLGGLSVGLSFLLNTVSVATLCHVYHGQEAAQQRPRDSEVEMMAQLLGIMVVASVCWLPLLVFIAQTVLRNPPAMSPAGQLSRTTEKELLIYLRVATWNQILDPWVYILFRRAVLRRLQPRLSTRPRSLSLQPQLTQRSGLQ
Procedure: Amino acid substitutions were introduced into the synthetic TPα gene carried by the expression vector pMT4 as described previously, [29]. DNA sequences of all the mutated genes were verified by automated DNA sequencing. To minimize variations in transfection efficiency, the total amount transfected DNA was kept constant in all cases at 1 µg of DNA per 7×10^5 cells. The wild type TP or mutant genes were expressed in COS-1 cells using a DEAE-dextran based transient transfection method, [29], and in HEK293T cells using lipofectamine 2000 (Invitrogen). Except unless specified, the membranes prepared from COS-1 cells were used for radioligand binding assays and immunoblots. For intracellular calcium determination assays and immunofluorescence imaging, HEK293T cells were used. […] The protein concentration in the resuspended membrane pellet was determined using a modified DC protein assay kit from Bio-Rad Laboratories (Hercules, CA).
Changes in intracellular calcium were measured by using the fluorescent calcium sensitive dye Fluo-4NW (Invitrogen). […] Dose–response curves were generated and EC50 values calculated by nonlinear regression analysis using PRISM software version 5.0 (GraphPad Software Inc, San Diego, CA) after subtracting the responses of mock-transfected cells stimulated with same concentrations of agonists.

[1] = molecular target: T2, TP G164V/V110A double mutant (Homo sapiens, UniProt P21731, G164V/V110A); settings: response could be restored upon stimulation with elevated levels of U46619
T2 construct: expressed in transfected cells; transient, pMT4
T2 sequence (P21731 1-343 V110A/G164V): T1 sequence (P21731 1-343 F115A) with V110A, A115F, G164V
Procedure: (§1) Amino acid substitutions were introduced into the synthetic TPα gene carried by the expression vector pMT4 as described previously, [29]. DNA sequences of all the mutated genes were verified by automated DNA sequencing. To minimize variations in transfection efficiency, the total amount transfected DNA was kept constant in all cases at 1 µg of DNA per 7×10^5 cells. The wild type TP or mutant genes were expressed in COS-1 cells using a DEAE-dextran based transient transfection method, [29], and in HEK293T cells using lipofectamine 2000 (Invitrogen). Except unless specified, the membranes prepared from COS-1 cells were used for radioligand binding assays and immunoblots. For intracellular calcium determination assays and immunofluorescence imaging, HEK293T cells were used. For transient transfections of HEK293T cells using the plasmid pMT4, lipofectamine 2000 (Invitrogen) mediated transfection was used as described by the manufacturer. Membranes were prepared using Buffers A and B and as described previously, [29]. The protein concentration in the resuspended membrane pellet was determined using a modified DC protein assay kit from Bio-Rad Laboratories (Hercules, CA).
(§2) Changes in intracellular calcium were measured by using the fluorescent calcium sensitive dye Fluo-4NW (Invitrogen). After 6–8 hours of transient transfection of HEK293T cells using lipofectamine 2000, 100,000 viable cells were plated into each well of a 96-well tissue culture treated BD-falcon optilux plates. Cells mock transfected with vector pMT4 alone were used as a negative control. Following 24 hours of incubation at 37°C, the media was removed and cells were incubated with the dye Fluo-4NW (Invitrogen) containing 77 µg/ml of probenecid for 1 hour, as recommended by the manufacturer. […] Dose–response curves were generated and EC50 values calculated by nonlinear regression analysis using PRISM software version 5.0 (GraphPad Software Inc, San Diego, CA) after subtracting the responses of mock-transfected cells stimulated with same concentrations of agonists.

TP G164V mutant = molecular target: T3, TP G164V mutant (Homo sapiens, UniProt P21731, G164V); settings: read-out: EC50 of agonist U46619 (calcium mobilized), transiently transfected HEK293T cells, mean ± S.E
T3 construct: expressed in transfected cells; HEK293T (calcium assays)
T3 sequence (P21731 1-343 G164V): T1 sequence (P21731 1-343 F115A) with A115F, G164V
Procedure: as §1, §2

TP F107A mutant = molecular target: T4, TP F107A mutant (Homo sapiens, UniProt P21731, F107A); settings: read-out: EC50 of agonist U46619 (calcium mobilized), transiently transfected HEK293T cells, mean ± S.E
T4 construct: expressed in transfected cells; HEK293T (calcium assays)
T4 sequence (P21731 1-343 F107A): T1 sequence (P21731 1-343 F115A) with F107A, A115F
Procedure: as §1, §2

TP A160V mutant = molecular target: T5, TP A160V mutant (Homo sapiens, UniProt P21731, A160V); settings: read-out: EC50 of agonist U46619 (calcium mobilized), transiently transfected HEK293T cells, mean ± S.E
T5 construct: expressed in transfected cells; HEK293T (calcium assays)
T5 sequence (P21731 1-343 A160V): T1 sequence (P21731 1-343 F115A) with A115F, A160V
Procedure: as §1, §2

SMILES: CCCCC[C@H](O)/C=C/[C@@H]1[C@@H](C/C=C\CCCC(=O)O)[C@H]2CO[C@@H]1C2 [U46619]
- EC50 (TP F115A mutant): 2 ± 0.3 nM
- Calcium response to U46619 [1]: reduced calcium response
- EC50 (TP G164V mutant): 38 ± 2.1 nM
- EC50 (TP F107A mutant): 2.5 ± 0.7 nM
- EC50 (TP A160V mutant): 9.5 ± 0.2 nM
